Molecules are shown by their SMILES.

A short description of the series: gradient 5% acetonitrile 3 min, to 50% in 2 min, to 85% in 15 min, held 3 min, 100 µL/min. As to conditions: column: Zorbax Extend-C18 2.1 x 50 mm; eluents: water / acetonitrile, 0.1% formic acid. In a few lines:
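Retention time was recorded from adduct peaks, which were picked computationally and each inspected manually. Pure standards ran in mixtures of ~100 molecules on HPLC coupled to a quadrupole time-of-flight mass spectrometer, in positive and negative ionization mode, through a Zorbax Extend-C18 column (2.1 × 50 mm, 1.8 μm) at 100 μL/min. Eluents were water and acetonitrile, each with 0.1% formic acid.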
The molecule `CCn1cc(-c2nc(CC(=O)NCc3ccc(Cl)cc3)cs2)c2cccnc21` gave an RP-LC retention time of 904 s. For `Cc1cccc2nnc(N3CCN(C(=O)c4cc(F)cc(F)c4)CC3)n12`, the RP-LC retention time was determined as 669 s. As for `Cc1cccc(CNC(=O)Cn2nc(C(=O)N3CCCC3)c3ccccc32)c1`, the RP-LC retention time was 828 s. The same measure for `Cn1nc(N2CCC(NC(=O)c3nccc4ccccc34)C2)ccc1=O` (centres undefined): 695 s; for `COc1ccc(NC(=O)N2CCC3(CC2)NC(=O)c2cc(C)ccc2N3C)cc1`: 742 s; for `COCC(CN1CCN(C2=NS(=O)(=O)c3ccccc32)CC1)OC(=O)c1ccc(C)cc1` (centres undefined): 646 s. Regarding `Cc1cccc(C)c1Nc1c(-c2c(F)cccc2Cl)nc2cnccn12`, the RP-LC retention time amounted to 866 s. For `COc1ccc(-c2ccc(=O)n(Cc3nc(-c4ccc(C)cc4)no3)n2)cc1OC`, the RP-LC retention time stood at 925 s. `Cc1ccc(NC(=O)C2CCCN2S(=O)(=O)c2cc3c(cc2C)NC(=O)CO3)c(C)c1` (centres undefined) came in with an RP-LC retention time of 817 s. Regarding `Cc1ccc(NC(=O)NC2CCN(C(=O)N3C[C@H]4C[C@H](C3)[C@H]3CCCC(=O)N3C4)CC2)cc1C`, the RP-LC retention time was found to be 702 s. The same measure for `COc1cccc(Cn2c(C(=O)N3CCC(C(=O)NC4CCCCC4)CC3)cc3ccsc32)c1`: 1000 s; for `Cc1ccc(-c2cn3c(CC(=O)NCc4ccco4)csc3n2)cc1C`: 750 s; for `COCCCNC(=O)C1CCCN(c2ccc(Sc3ccc(Br)cc3)nn2)C1` (centres undefined): 777 s. The same measure for `CSc1cccc(NC(=O)CN2C(=O)C3CCCCN3c3ccc(S(=O)(=O)N(C)C)cc32)c1` (centres undefined): 982 s; for `Cc1ccc(C)c(-c2cc3c(=O)n(Cc4nc(-c5ccccc5Cl)no4)ncn3n2)c1`: 1220 s. Take `Cc1ccc(NC(=O)Cn2ccc3sccc3c2=O)cc1Cl`: the RP-LC retention time amounted to 830 s. The same measure for `COC(=O)C1=CN(C2CC2)c2cc(N3CCc4ccccc4C3)c(F)cc2S1(=O)=O`: 977 s; for `C=CCNc1nnc(SCC(=O)N2CCC(C(N)=O)CC2)s1`: 572 s; for `CCn1ccc2ccn(CC(=O)NCc3ccc4c(c3)OCO4)c(=O)c21`: 726 s. `CCn1nc(N2CCCC(NC(=O)C3(c4ccccc4)CCCC3)C2)ccc1=O` (centres undefined) displayed an RP-LC retention time of 792 s. Molecule `COc1ccc(NC(=O)Cn2nc3c(Oc4cccc(F)c4)nccn3c2=O)cc1` returned an RP-LC retention time of 814 s.

`O=C(CN1C(=O)CC(c2cccs2)=Nc2ccccc21)NC1CCCCC1`: the RP-LC retention time was determined as 884 s. The molecule `CCC1CN(C(=O)N2CCC(C(=O)NCCN3CCN(C)CC3)CC2)c2ccccc2O1` (centres undefined) displayed an RP-LC retention time of 606 s. For `O=C(Cc1cn2cc(Br)ccc2n1)Nc1ccc2c(c1)OCCO2`, the RP-LC retention time was determined as 608 s. Molecule `COCC(C)(O)CNC(=O)C(=O)Nc1ccccc1C#N` (centres undefined) gave an RP-LC retention time of 629 s. For `COc1cc(NC(=O)CCc2c(-c3ccccc3)nc3ccccn23)cc(OC)c1`, the RP-LC retention time was 671 s. `Cc1ccc(C)c(CN2CCCN(c3ncccc3-c3nc(C(C)C)no3)CC2)c1` had an RP-LC retention time of 790 s.

`Cc1ccc(N2CC(c3noc(-c4cccc(OC(F)(F)F)c4)n3)CC2=O)cc1` (centres undefined) returned an RP-LC retention time of 1160 s. Molecule `O=C(c1ccc2c(c1)OCO2)N1CCC2(CC1)CC(O)CCO2` (centres undefined) registered an RP-LC retention time of 590 s. In turn, `CCOC(=O)CCc1c(C)c2c(O)cc(O)cc2oc1=O` showed an RP-LC retention time of 701 s. Regarding `COc1ccc(NC(=O)c2cc3c(=O)n(CC(C)C)c4ccccc4n3n2)c(C)c1`, the RP-LC retention time was found to be 1090 s. `COc1ccccc1CNC(=O)C1CCCN(c2nnc3ccccn23)C1` (centres undefined) gave an RP-LC retention time of 652 s. `O=C(Cn1nc2nc(N3CCCC3)ccn2c1=O)Nc1ccc(Cl)cc1` displayed an RP-LC retention time of 714 s.

Regarding `Cc1ccc(-c2noc(Cc3nc(-c4cccc(Cl)c4)cs3)n2)cc1`, the RP-LC retention time was found to be 1040 s.

`Cc1noc([C@@H]2CN(C(=O)c3ccsc3)C[C@H]2C(N)=O)n1` displayed an RP-LC retention time of 601 s. In the case of `O=C(NCc1ccccn1)c1c(-c2ccccc2)nnc2ccccc12`, the RP-LC retention time is 609 s. `O=C(Cc1cccs1)N1CCC2(CC1)N=C(c1ccc(Cl)cc1)NO2` displayed an RP-LC retention time of 859 s. The same measure for `O=C(O)C1CCN(c2nc3ccc(-c4ccncc4)nc3s2)CC1`: 588 s; for `O=C(c1cncc(Br)c1)N1CCN(c2ccc(-c3cccs3)nn2)CC1`: 651 s. Take `COc1ccc2c(c1)C1(CCN(C(=O)c3ccccc3F)C1)C(=O)N2` (centres undefined): the RP-LC retention time worked out at 703 s.

Molecule `COc1ccc(-c2noc(-c3ncn4c3COC(c3ccc(F)cc3)C4)n2)c(OC)c1` (centres undefined) yielded an RP-LC retention time of 954 s. As for `CCN1CCN(c2nc(F)c(F)c(S(=O)(=O)CCNc3cccc4ccccc34)c2F)CC1`, the RP-LC retention time came to 697 s. For `Cc1oc(C2CCN(C(=O)Cc3cccs3)CC2)nc1C(=O)N1CCSCC1`, the RP-LC retention time worked out at 742 s. On to `COCc1noc(C2CN(CCc3ccccc3)CC23CCCC3)n1` (centres undefined), for which the RP-LC retention time was found to be 670 s. The same measure for `CN1Cc2ccccc2-n2ccnc2C12CCN(C(=O)c1ccc(Br)o1)CC2`: 615 s. Molecule `CC(C)c1nc2cc3c(cc2n1CC(=O)Nc1ccc2c(c1)OCCO2)OCCO3` came in with an RP-LC retention time of 654 s. The same measure for `Cn1c(C(=O)NCCCN2CCN(C3CCCCC3)CC2)cc2sccc21`: 547 s; for `Cc1ccc(-c2nc(Nc3ccc(Br)cc3)sc2CC(=O)O)c(C)c1`: 1090 s.

As to `COc1ccc(-c2cn3cccnc3n2)cc1NC(=O)c1ccccc1Br`, the RP-LC retention time amounted to 685 s. The same measure for `CCn1c(-c2ccccc2)nc2ccccc21`: 623 s. The same measure for `COc1ccc(C(=O)N(C2CCCC2)C2(C(=O)NCc3ccccc3)CCN(C(C)=O)CC2)cc1`: 885 s; for `CCN(CC)CCNc1c(C)cc(CO)c(Cl)c1C`: 640 s; for `Cc1ccc(Cl)cc1-n1ncc2c(=O)n(Cc3nc(-c4cccc(C(F)(F)F)c4)no3)cnc21`: 1180 s. `CC(C)N1CCN(S(=O)(=O)c2cc(-c3nnc(C4CCC4)o3)co2)CC1` had an RP-LC retention time of 622 s. `COc1cccc(-c2noc(C3CCCN3C(=O)Nc3ccc(Br)cc3)n2)c1` (centres undefined) returned an RP-LC retention time of 964 s. `Cc1ccc2nc(-c3cccc(Cl)c3)c(Nc3ccc4c(c3)OCO4)n2c1`: the RP-LC retention time is 746 s.

For `CCn1c(C(=O)NCc2ccc(C)cc2)cc2sc(Cl)cc21`, the RP-LC retention time was found to be 1200 s. `CC(=O)N1CCc2cc(S(=O)(=O)C(C)CC(=O)N3CCN(c4ccc(C)cc4C)CC3)ccc21` (centres undefined) yielded an RP-LC retention time of 968 s.

Molecule `Cc1nccn1C1CN(C(=O)c2ccc3cc[nH]c3c2)C1` yielded an RP-LC retention time of 582 s. Take `O=C(CSc1ncn[nH]1)Nc1ccc(Cl)cc1`: the RP-LC retention time worked out at 642 s. The same measure for `CC(=O)Nc1ccc(C)cc1S(=O)(=O)N1CCc2c(c(-c3nnc(-c4ccccc4)o3)nn2C)C1`: 815 s; for `COc1cc(NC(=O)c2cn3c(n2)CCCC3)cc(OC)c1`: 614 s. `Cn1c(=O)c(-c2noc(C(=O)N3CCN(c4ccccn4)CC3)n2)nn(-c2ccc(F)cc2)c1=O` had an RP-LC retention time of 666 s. The molecule `COc1ccc(C(=O)N2CCCn3nc(-c4cccs4)cc3C2)cn1` yielded an RP-LC retention time of 766 s. The same measure for `Clc1cc(Cl)cc(-c2ccc(CNCc3ccco3)o2)c1`: 784 s; for `COc1ccc(-c2nc3nc(C)cc(C)n3c2Nc2ccccc2C)cc1`: 742 s. For the molecule `COc1ccccc1-c1cnn2c(Nc3ccc(NC(C)=O)cc3)cc(C)nc12`, the RP-LC retention time is 593 s. For `COc1ccc(NC(=O)Nc2c(-c3cccc(C)c3)nc3ccccn23)cc1Cl`, the RP-LC retention time was found to be 702 s.

Regarding `Cc1cccc(Oc2nccnc2N2CCC(C(=O)NCCC3=CCCCC3)CC2)c1`, the RP-LC retention time is 1130 s. `CCOc1cc(CNC(=O)C2CCCN(c3nc4ccccc4n(CC)c3=O)C2)ccc1OC` (centres undefined) showed an RP-LC retention time of 936 s.

As for `O=c1ccc(-c2nc(-c3ccncc3)no2)nn1Cc1ccc(Cl)cc1`, the RP-LC retention time amounted to 909 s.

`Cc1ccc(CNC(=O)C2(C)CN(S(C)(=O)=O)CC(=O)N2Cc2cccc(C)c2)cc1` (centres undefined) displayed an RP-LC retention time of 868 s.

As for `COc1ccc(Cl)cc1NC(=O)Nc1ccc2c(c1)CN(C(=O)C1CC1)CC2`, the RP-LC retention time came out at 871 s. The same measure for `COc1ccc(C(=O)CSc2nc3ccccc3[nH]2)cc1`: 647 s.

In turn, `COc1ccc(C(=O)c2cnc3ccc(OC)cc3c2N2CCN(C)CC2)cc1` registered an RP-LC retention time of 561 s. As for `Fc1ccc(CN2CCC(Cc3nc(-c4ccncc4)n[nH]3)C2)c(F)c1` (centres undefined), the RP-LC retention time came out at 552 s.

As to `O=C1CCCc2cc(S(=O)(=O)NCC3CCN(Cc4ccccc4F)CC3)ccc2N1`, the RP-LC retention time was 596 s. On to `Cc1ccc(-c2nnc(SCC(=O)Nc3ccc(C)cc3Br)o2)cc1`, for which the RP-LC retention time was 830 s.

Molecule `CC(C)n1cc(S(=O)(=O)Nc2ccc(F)cc2F)c2cccnc21` registered an RP-LC retention time of 890 s.

These data come from the METLIN SMRT retention time set (Domingo-Almenara et al. 2019).
